Measured values from PubChem BioAssay (NCI).
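1) Cells in 96-well plates. 2) Compound, 48 h, 5 concentrations. 3) Linear interpolation between surrounding doses. 4) Unreached endpoint = highest concentration. GI50 is the concentration that inhibits growth by half. Definition used: TGI = concentration required for complete inhibition of growth.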

Key:
Experiment in all cases: DTP human tumour cell line panel, 48 h
786-0 renal = system: 786-0 renal
A498 renal = system: A498 renal
A549 NSCLC = system: A549 NSCLC
ACHN renal = system: ACHN renal
CAKI-1 renal = system: CAKI-1 renal
CCRF-CEM leukemia = system: CCRF-CEM leukemia
COLO 205 colon = system: COLO 205 colon
DLD-1 colon = system: DLD-1 colon
DMS 273 small cell lung = system: DMS 273 small cell lung
EKVX NSCLC = system: EKVX NSCLC
HCC-2998 colon = system: HCC-2998 colon
HCT-116 colon = system: HCT-116 colon
HCT-15 colon = system: HCT-15 colon
HL-60(TB) leukemia = system: HL-60(TB) leukemia
HOP-62 NSCLC = system: HOP-62 NSCLC
HOP-92 NSCLC = system: HOP-92 NSCLC
HT29 colon = system: HT29 colon
IGROV1 ovarian = system: IGROV1 ovarian
K-562 leukemia = system: K-562 leukemia
KM12 colon = system: KM12 colon
KM20L2 colon = system: KM20L2 colon
LOX IMVI melanoma = system: LOX IMVI melanoma
LXFL 529 NSCLC = system: LXFL 529 NSCLC
M14 melanoma = system: M14 melanoma
MALME-3M melanoma = system: MALME-3M melanoma
MOLT-4 leukemia = system: MOLT-4 leukemia
NCI-H226 lung = system: NCI-H226 lung
NCI-H23 lung = system: NCI-H23 lung
NCI-H460 lung = system: NCI-H460 lung
NCI-H522 lung = system: NCI-H522 lung
OVCAR-3 ovarian = system: OVCAR-3 ovarian
OVCAR-4 ovarian = system: OVCAR-4 ovarian
OVCAR-5 ovarian = system: OVCAR-5 ovarian
OVCAR-8 ovarian = system: OVCAR-8 ovarian
RPMI-8226 leukemia = system: RPMI-8226 leukemia
SF-268 CNS = system: SF-268 CNS
SF-295 CNS = system: SF-295 CNS
SF-539 CNS = system: SF-539 CNS
SK-MEL-2 melanoma = system: SK-MEL-2 melanoma
SK-MEL-28 melanoma = system: SK-MEL-28 melanoma
SK-MEL-5 melanoma = system: SK-MEL-5 melanoma
SK-OV-3 ovarian = system: SK-OV-3 ovarian
SN12C renal = system: SN12C renal
SNB-75 CNS = system: SNB-75 CNS
SNB-78 CNS = system: SNB-78 CNS
SR leukemia = system: SR leukemia
SW-620 colon = system: SW-620 colon
TK-10 renal = system: TK-10 renal
U251 CNS = system: U251 CNS
UACC-257 melanoma = system: UACC-257 melanoma
UACC-62 melanoma = system: UACC-62 melanoma
UO-31 renal = system: UO-31 renal

O=S(=O)([O-])[O-].[Cl-].[NH2-].[NH2-].[NH2-].[NH2-].[Ru+3].c1ccc(-c2cccnc2)cc1
GI50 (786-0 renal): > 100 µM | TGI (786-0 renal): > 100 µM | GI50 (A498 renal): > 100 µM | TGI (A498 renal): > 100 µM | GI50 (A549 NSCLC): > 100 µM | TGI (A549 NSCLC): > 100 µM | GI50 (ACHN renal): > 100 µM | TGI (ACHN renal): > 100 µM | GI50 (CAKI-1 renal): > 100 µM | TGI (CAKI-1 renal): > 100 µM | GI50 (CCRF-CEM leukemia): > 100 µM | TGI (CCRF-CEM leukemia): > 100 µM | GI50 (COLO 205 colon): > 100 µM | TGI (COLO 205 colon): > 100 µM | GI50 (DLD-1 colon): > 100 µM | TGI (DLD-1 colon): > 100 µM | GI50 (DMS 273 small cell lung): > 100 µM | TGI (DMS 273 small cell lung): > 100 µM | GI50 (EKVX NSCLC): > 100 µM | TGI (EKVX NSCLC): > 100 µM | GI50 (HCC-2998 colon): > 100 µM | TGI (HCC-2998 colon): > 100 µM | GI50 (HCT-116 colon): > 100 µM | TGI (HCT-116 colon): > 100 µM | GI50 (HCT-15 colon): > 100 µM | TGI (HCT-15 colon): > 100 µM | GI50 (HL-60(TB) leukemia): > 100 µM | TGI (HL-60(TB) leukemia): > 100 µM | GI50 (HOP-62 NSCLC): > 100 µM | TGI (HOP-62 NSCLC): > 100 µM | GI50 (HOP-92 NSCLC): > 100 µM | TGI (HOP-92 NSCLC): > 100 µM | GI50 (HT29 colon): > 100 µM | TGI (HT29 colon): > 100 µM | GI50 (IGROV1 ovarian): > 100 µM | TGI (IGROV1 ovarian): > 100 µM | GI50 (K-562 leukemia): > 100 µM | TGI (K-562 leukemia): > 100 µM | GI50 (KM12 colon): > 100 µM | TGI (KM12 colon): > 100 µM | GI50 (KM20L2 colon): > 100 µM | TGI (KM20L2 colon): > 100 µM | GI50 (LOX IMVI melanoma): > 100 µM | TGI (LOX IMVI melanoma): > 100 µM | GI50 (LXFL 529 NSCLC): > 100 µM | TGI (LXFL 529 NSCLC): > 100 µM | GI50 (M14 melanoma): > 100 µM | TGI (M14 melanoma): > 100 µM | GI50 (MALME-3M melanoma): > 100 µM | TGI (MALME-3M melanoma): > 100 µM | GI50 (MOLT-4 leukemia): > 100 µM | TGI (MOLT-4 leukemia): > 100 µM | GI50 (NCI-H226 lung): > 100 µM | TGI (NCI-H226 lung): > 100 µM | GI50 (NCI-H23 lung): > 100 µM | TGI (NCI-H23 lung): > 100 µM | GI50 (NCI-H460 lung): > 100 µM | TGI (NCI-H460 lung): > 100 µM | GI50 (NCI-H522 lung): > 100 µM | TGI (NCI-H522 lung): > 100 µM | GI50 (OVCAR-3 ovarian): > 100 µM | TGI (OVCAR-3 ovarian): > 100 µM | GI50 (OVCAR-4 ovarian): > 100 µM | TGI (OVCAR-4 ovarian): > 100 µM | GI50 (OVCAR-5 ovarian): > 100 µM | TGI (OVCAR-5 ovarian): > 100 µM | GI50 (OVCAR-8 ovarian): > 100 µM | TGI (OVCAR-8 ovarian): > 100 µM | GI50 (RPMI-8226 leukemia): > 100 µM | TGI (RPMI-8226 leukemia): > 100 µM | GI50 (SF-268 CNS): > 100 µM | TGI (SF-268 CNS): > 100 µM | GI50 (SF-295 CNS): > 100 µM | TGI (SF-295 CNS): > 100 µM | GI50 (SF-539 CNS): > 100 µM | TGI (SF-539 CNS): > 100 µM | GI50 (SK-MEL-2 melanoma): > 100 µM | TGI (SK-MEL-2 melanoma): > 100 µM | GI50 (SK-MEL-28 melanoma): > 100 µM | TGI (SK-MEL-28 melanoma): > 100 µM | GI50 (SK-MEL-5 melanoma): > 100 µM | TGI (SK-MEL-5 melanoma): > 100 µM | GI50 (SK-OV-3 ovarian): > 100 µM | TGI (SK-OV-3 ovarian): > 100 µM | GI50 (SN12C renal): > 100 µM | TGI (SN12C renal): > 100 µM | GI50 (SNB-75 CNS): 88.9 µM | TGI (SNB-75 CNS): > 100 µM | GI50 (SNB-78 CNS): > 100 µM | TGI (SNB-78 CNS): > 100 µM | GI50 (SR leukemia): > 100 µM | TGI (SR leukemia): > 100 µM | GI50 (SW-620 colon): > 100 µM | TGI (SW-620 colon): > 100 µM | GI50 (TK-10 renal): > 100 µM | TGI (TK-10 renal): > 100 µM | GI50 (U251 CNS): > 100 µM | TGI (U251 CNS): > 100 µM | GI50 (UACC-257 melanoma): > 100 µM | TGI (UACC-257 melanoma): > 100 µM | GI50 (UACC-62 melanoma): > 100 µM | TGI (UACC-62 melanoma): > 100 µM | GI50 (UO-31 renal): > 100 µM | TGI (UO-31 renal): > 100 µM
